# From PubChem BioAssay (NCI)
#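 Here, GI50 denotes the concentration required for 50% inhibition of growth. Definition used: TGI = concentration required for complete inhibition of growth.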
# Columns and labels:
# Assay in all cases: NCI tumour cell line growth inhibition, 384-well format
# HOP-92 NSCLC = tested on: HOP-92 NSCLC
# UACC-257 melanoma = tested on: UACC-257 melanoma
# HCT-116 colon = tested on: HCT-116 colon
# COLO 205 colon = tested on: COLO 205 colon
# UO-31 renal = tested on: UO-31 renal
# SW-620 colon = tested on: SW-620 colon
# NCI-H522 lung = tested on: NCI-H522 lung
# BT-549 breast = tested on: BT-549 breast
# NCI-H23 lung = tested on: NCI-H23 lung
# HOP-62 NSCLC = tested on: HOP-62 NSCLC
# K-562 leukemia = tested on: K-562 leukemia
# A498 renal = tested on: A498 renal
# HT29 colon = tested on: HT29 colon
# DU-145 prostate = tested on: DU-145 prostate
# EKVX NSCLC = tested on: EKVX NSCLC
# M14 melanoma = tested on: M14 melanoma
# ACHN renal = tested on: ACHN renal
# MCF7 breast = tested on: MCF7 breast
# 786-0 renal = tested on: 786-0 renal
# HL-60(TB) leukemia = tested on: HL-60(TB) leukemia
# OVCAR-3 ovarian = tested on: OVCAR-3 ovarian
# T-47D breast = tested on: T-47D breast
# SK-MEL-28 melanoma = tested on: SK-MEL-28 melanoma
# RXF 393 renal = tested on: RXF 393 renal
# MALME-3M melanoma = tested on: MALME-3M melanoma
# KM12 colon = tested on: KM12 colon
# UACC-62 melanoma = tested on: UACC-62 melanoma
# SNB-19 CNS = tested on: SNB-19 CNS
# SF-539 CNS = tested on: SF-539 CNS
# IGROV1 ovarian = tested on: IGROV1 ovarian
# RPMI-8226 leukemia = tested on: RPMI-8226 leukemia
# SF-295 CNS = tested on: SF-295 CNS
# OVCAR-5 ovarian = tested on: OVCAR-5 ovarian
# MDA-MB-468 breast = tested on: MDA-MB-468 breast
# A549 NSCLC = tested on: A549 NSCLC
# MDA-MB-231 breast = tested on: MDA-MB-231 breast
# SK-MEL-5 melanoma = tested on: SK-MEL-5 melanoma
# SK-OV-3 ovarian = tested on: SK-OV-3 ovarian
# SNB-75 CNS = tested on: SNB-75 CNS
# TK-10 renal = tested on: TK-10 renal
# CAKI-1 renal = tested on: CAKI-1 renal
# NCI-H322M lung = tested on: NCI-H322M lung
# LOX IMVI melanoma = tested on: LOX IMVI melanoma
# OVCAR-4 ovarian = tested on: OVCAR-4 ovarian
# OVCAR-8 ovarian = tested on: OVCAR-8 ovarian
# U251 glioblastoma = tested on: U251 glioblastoma
# SF-268 CNS = tested on: SF-268 CNS
structure (smiles),measurement,setting,value
FC(F)(F)c1ccc(CNc2ccc(Cc3c[nH]c4ncc(Cl)cc34)cn2)cn1,GI50,HOP-92 NSCLC,8.41 µM
same,TGI,HOP-92 NSCLC,21.3 µM
same,GI50,UACC-257 melanoma,12.4 µM
same,TGI,UACC-257 melanoma,25.9 µM
same,GI50,HCT-116 colon,12.8 µM
same,TGI,HCT-116 colon,25.9 µM
same,GI50,COLO 205 colon,14.9 µM
same,TGI,COLO 205 colon,28.4 µM
same,GI50,UO-31 renal,11.6 µM
same,TGI,UO-31 renal,23.9 µM
same,GI50,SW-620 colon,15.1 µM
same,TGI,SW-620 colon,28.8 µM
same,GI50,NCI-H522 lung,8.58 µM
same,TGI,NCI-H522 lung,21 µM
same,GI50,BT-549 breast,12.2 µM
same,TGI,BT-549 breast,25.5 µM
same,GI50,NCI-H23 lung,11 µM
same,TGI,NCI-H23 lung,23 µM
same,GI50,HOP-62 NSCLC,12.2 µM
same,TGI,HOP-62 NSCLC,25.5 µM
same,GI50,K-562 leukemia,5.09 µM
same,TGI,K-562 leukemia,17.2 µM
same,GI50,A498 renal,7.91 µM
same,TGI,A498 renal,19.1 µM
same,GI50,HT29 colon,9.79 µM
same,TGI,HT29 colon,23 µM
same,GI50,DU-145 prostate,15.4 µM
same,TGI,DU-145 prostate,29.1 µM
same,GI50,EKVX NSCLC,10.7 µM
same,TGI,EKVX NSCLC,23.7 µM
same,GI50,M14 melanoma,13.3 µM
same,TGI,M14 melanoma,26.2 µM
same,GI50,ACHN renal,14.1 µM
same,TGI,ACHN renal,30.7 µM
same,GI50,MCF7 breast,12.5 µM
same,TGI,MCF7 breast,25.3 µM
same,GI50,786-0 renal,3.7 µM
same,TGI,786-0 renal,10.7 µM
same,GI50,HL-60(TB) leukemia,6.17 µM
same,TGI,HL-60(TB) leukemia,16.3 µM
same,GI50,OVCAR-3 ovarian,15.7 µM
same,TGI,OVCAR-3 ovarian,29.8 µM
same,GI50,T-47D breast,4.85 µM
same,TGI,T-47D breast,16.1 µM
same,GI50,SK-MEL-28 melanoma,9 µM
same,TGI,SK-MEL-28 melanoma,21.7 µM
same,GI50,RXF 393 renal,4.54 µM
same,TGI,RXF 393 renal,14.7 µM
same,GI50,MALME-3M melanoma,8.2 µM
same,TGI,MALME-3M melanoma,17.4 µM
same,GI50,KM12 colon,4.46 µM
same,TGI,KM12 colon,14.2 µM
same,GI50,UACC-62 melanoma,12.5 µM
same,TGI,UACC-62 melanoma,25.3 µM
same,GI50,SNB-19 CNS,15.9 µM
same,TGI,SNB-19 CNS,30.5 µM
same,GI50,SF-539 CNS,11.2 µM
same,TGI,SF-539 CNS,23.7 µM
same,GI50,IGROV1 ovarian,13.5 µM
same,TGI,IGROV1 ovarian,27.8 µM
same,GI50,RPMI-8226 leukemia,6.96 µM
same,TGI,RPMI-8226 leukemia,19.1 µM
same,GI50,SF-295 CNS,11.3 µM
same,TGI,SF-295 CNS,23.7 µM
same,GI50,OVCAR-5 ovarian,15.7 µM
same,TGI,OVCAR-5 ovarian,29.6 µM
same,GI50,MDA-MB-468 breast,2.82 µM
same,TGI,MDA-MB-468 breast,9.15 µM
same,GI50,A549 NSCLC,13.1 µM
same,TGI,A549 NSCLC,26.2 µM
same,GI50,MDA-MB-231 breast,13.7 µM
same,TGI,MDA-MB-231 breast,26.7 µM
same,GI50,SK-MEL-5 melanoma,6.22 µM
same,TGI,SK-MEL-5 melanoma,18.3 µM
same,GI50,SK-OV-3 ovarian,12 µM
same,TGI,SK-OV-3 ovarian,26 µM
same,GI50,SNB-75 CNS,2.73 µM
same,TGI,SNB-75 CNS,8.45 µM
same,GI50,TK-10 renal,14.4 µM
same,TGI,TK-10 renal,28.6 µM
same,GI50,CAKI-1 renal,14.7 µM
same,TGI,CAKI-1 renal,28.8 µM
same,GI50,NCI-H322M lung,8.81 µM
same,TGI,NCI-H322M lung,21.6 µM
same,GI50,LOX IMVI melanoma,14.4 µM
same,TGI,LOX IMVI melanoma,27.7 µM
same,GI50,OVCAR-4 ovarian,9.12 µM
same,TGI,OVCAR-4 ovarian,22.2 µM
same,GI50,OVCAR-8 ovarian,10.3 µM
same,TGI,OVCAR-8 ovarian,23.1 µM
same,GI50,U251 glioblastoma,14.2 µM
same,TGI,U251 glioblastoma,27.5 µM
same,GI50,SF-268 CNS,8.91 µM
same,TGI,SF-268 CNS,21.7 µM
